Consider seven molecules from patent US5994373A, “Substituted azacyclic compounds” (Novo Nordisk A/S Novo Alle DK 2880, priority 1995, dated 1999).

Where two headings read alike, the source gives them in different places.

A word on the IC50: it is the concentration needed to halve the response being measured. A lower IC50 goes with greater potency in that assay.

Test [1] relates to nicotinic acetylcholine receptors. Description: inhibition of specific binding of ^3 H-methylcarbamylcholine (^3 H-MCC) in rat brain tissue. The note with it: rat cortical receptors; for Oxo/MCC Ratio: IC50 ^3 H-Oxo / IC50 ^3 H-MCC; for IC50: ^3 H-MCC 2 nM, 0° C., 60 min. The text has this:
The pharmacological properties of the compounds of the invention can be illustrated by determining their capability to inhibit the specific binding of ^3 H-methylcarbamylcholine (^3 H-MCC) (Abood and Grassi, Biochem. Pharmacol., Vol. 35, pp. 4199-4202, (1986)).
^3 H-MCC labels the nicotinic receptors in the CNS. The inhibitory effect on ^3 H-MCC binding reflects the affinity for nicotinic acetylcholine receptors.
Fresh or frozen rat, brain tissue (hippocampus or cortex) was homogenized in assay buffer (50 mM Tris-HCl, pH 7.4, 120 mM NaCl, 5 mM KCl, 2 mM CaCl2, 1 mM MgCl2) and centrifuged for 10 min. at 40.000×g. Pellets were subsequently reconstituted in assay buffer and an appropriate amount of tissue sample was mixed in tubes with ^3 H-methylcarbamylcholine (NEN, NET-951; final concentration 2 nM) and test drug. The tubes were incubated at 0° C. for 60 min. Unbound ligand was separated from bound ligand by vacuum filtration through GF/B filters presoaked in 0.5 % polyethylenimine. Filters were washed three times with 5 ml wash buffer (50 mM Tris-HCl, pH 7.4) and transferred to vials. 4 ml scintillation fluid was added and the radioactivity was measured by scintillation counting. Unspecific binding was measured with 10 μM nicotine.
The IC50 values of the test compounds were determined by nonlinear regression analyses (GraphPad InPlot).
Table I illustrates the affinity of the compounds of the present invention for nicotinic and muscarinic receptors as determined by ^3 H-MCC and ^3 H-Oxo binding to rat cortical receptors. The compounds, however, show selective affinity for nicotinic receptors as compared to muscarinic receptors, i.e OXO/MCC>1.

Test [2] has as its target muscarinic acetylcholine receptors. The test can be described thus: inhibition of specific binding of ^3 H-Oxotremorine-M (^3 H-Oxo) in rat cortex. To be noted: rat cortical receptors; 1.0 nM radioligand, 25° C., 30 min. The source says: Furthermore, the pharmacological properties of the compounds of the invention can also be illustrated by determining their capability to inhibit the specific binding of ^3 H-Oxotremorine-M (^3 H-Oxo). Birdsdall N. J. M., Hulme E. C., and Burgen A. S. V. (1980). "The Character of Muscarinic Receptors in Different Regions of the Rat Brain". Proc. Roy. Soc. London (Series B) 207,1.
^3 H-Oxo labels muscarinic receptor in the CNS (with a preference for agonist domains of the receptors). Three different sites are labelled by ^3 H-Oxo. […] Using the present experimental conditions only the high and medium affinity sites are determined.
The inhibitory effects of compounds on ^3 H-Oxo binding reflects the affinity for muscarinic acetylcholine receptors.
All preparations are performed at 0-4° C. unless otherwise indicated. Fresh cortex (0.1-1 g) from male Wistar rats (150-250 g) is homogenized for 5-10 s in 10 ml 20 mM Hepes pH: 7.4, with an Ultra-Turrax homogenizer. The homogenizer is rinsed with 10 ml of buffer and the combined suspension centrifuged for 15 min. at 40,000×g. The pellet is washed three times with buffer. In each step the pellet is homogenized as before in 2×10 ml of buffer and centrifuged for 10 min. at 40,000×g.
The final pellet is homogenized in 20 mM Hepes pH: 7.4 (100 ml per g of original tissue) and used for binding assay. Aliquots of 0.5 ml is added 25 μl of test solution and 25 μl of ^3 H-Oxotremorine (1.0 nM, final concentration) mixed and incubated for 30 min. at 25° C. Non-specific binding is determined in triplicate using arecoline (1 μg/ml, final concentration) as the test substance. After incubation samples are added 5 ml of ice-cold buffer and poured directly onto Whatman GF/C glass fiber filters under suction and immediately washed 2 times with 5 ml of ice-cold buffer. The amount of radioactivity on the filters are determined by conventional liquid scintillation counting. Specific binding is total binding minus non specific binding.
Test substances are dissolved in 10 ml water (if necessary heated on a steam-bath for less than 5 min.) at a concentration of 2.2 mg/ml. 25-75% inhibition of specific binding must be obtained before calculation of IC50. The test value will be given as IC50 (the concentration (nM) of the test substance which inhibits the specific binding of ^3 H-Oxo by 50%).
IC50 =(applied test substance concentration)×(Cx /Co
where Co is specific binding in control assays and Cx is the specific binding in the test assay. (The calculations assume normal mass-action kinetics).
Table I illustrates the affinity of the compounds of the present invention for nicotinic and muscarinic receptors as determined by ^3 H-MCC and ^3 H-Oxo binding to rat cortical receptors. […]

Test [3] relates to attention and memory. To be noted: Alzheimer's disease patients; cited from earlier work.
Test [4] relates to attention and memory. To be noted: healthy humans; cited from earlier work.
A further test has as its system Tourette's syndrome. The note with it: in vivo; cited from earlier work.
A further test concerns dopamine release. To be noted: nucleus accumbens compared with striatum; cited from earlier work.
The subject of a further test is substantia nigra. To be noted: chronic nicotine; lesioning; cited from earlier work.
Another test concerns dopaminergic effects. To be noted: various behavioral models; cited from earlier work.
The next test relates to prefrontal neurons. To be noted: cited from earlier work.
Test [5] deals with muscarinic acetylcholine receptors. To be noted: read-out: affinity of site labelled by ^3 H-Oxo, cited from earlier work.
A further test deals with cognitive function. The note with it: age related; cited from earlier work.

For `CN1CCC=C(c2cnoc2NCc2ccccc2)C1.O=C(O)C(=O)O` [Compound 14, 3-(5-Benzylamino-4-isoxazolyl)-1,2,5,6-tetrahydro-1-methylpyridine oxalate], in test [1], the “Oxo/MCC Ratio” value came out at 47 and the IC50 amounted to 85 nM. The IC50 in test [2] came to 4000 nM.
The corresponding values for `CCNc1oncc1C1=CCCN(C)C1.O=C(O)C(=O)O` [Compound 5, 3-(5-ethylamino-4-isoxazolyl)-1,2,5,6-tetrahydro-1-methylpyridine oxalate] are 23, 62 nM and 1400 nM.
The corresponding values for `CCCNc1oncc1C1=CCCN(C)C1.O=C(O)C(=O)O` [Compound 7, 3-(5-Propylamino-4-isoxazolyl)-1,2,5,6-tetrahydro-1-methylpyridine oxalate] are 130, 40 nM and 5200 nM.
`CN1CCCC1c1cccnc1` (centres unmarked) [nicotine]: the attention and memory result in the test with attention and memory [3] was “improved attention and memory”; in the test on attention and memory [4] it was “improved attention and memory in healthy humans”. In addition, in the test on Tourette's syndrome, the “effects in Tourette's syndrome” value is listed as “beneficial effects in Tourette's syndrome”. For the same molecule, the “stimulation of dopamine release” value in the test with dopamine release was “stimulates dopamine release in the nucleus accumbens more potently than in striatum”. Further, in the test with substantia nigra, the “protection against cell loss in the substantia nigra” value is recorded as “may protect against cell loss in the substantia nigra”. The “potentiation of dopaminergic effects” value in the test with dopaminergic effects is on record as “potentiate dopaminergic effects in various behavioral models”. Besides, the “reversal of inactivation of prefrontal neurons” value in the test with prefrontal neurons is “nicotinic reversal of inactivation of prefrontal neurons”.
Consider `C[N+](C)(C)CC#CCN1CCCC1=O` [^3 H-Oxo, ^3 H-Oxotremorine-M], for which the Kd was 1.8 nM in [5] (high affinity site); 20 nM in [5] (medium affinity site); 3000 nM in test [5] (third (lowest affinity) site, not determined under present conditions).
`CNC1(C)C2CCC(C2)C1(C)C` (centres unmarked) [mecamylamine]: the cognitive impairment result in the test on cognitive function is given as “cause cognitive impairment in an age related way”.
Consider `CNc1oncc1C1=CCCN(C)C1.O=C(O)C(=O)O` [Compound 3, 3-(5-methylamino-4-isoxazolyl)-1,2,5,6-tetrahydro-1-methylpyridine oxalate], for which the “Oxo/MCC Ratio” value in test [1] stood at 19. In addition, the IC50 in [1] came out at 230 nM; in test [2], 4400 nM.
